EC50 data for one compound are collected here from patent US9856284B2, “Solid forms of a thiophosphoramidate nucleotide prodrug” (Alios BioPharma, Inc., priority 2012, dated 2018).

Molecules are shown by their SMILES. A value given as a limit tells only on which side of the number the result lay.

The experiment relates to subgenomic HCV replicon in Huh-7 cells. The experiment is described as follows: HCV replicon assay. Particulars: Huh-7 cells with subgenomic HCV replicon, luciferase (LUC) reporter, 72 hours, 1% DMSO; read-out: EC50 (50% inhibitory concentration) in HCV replicon cells. The class given is cell-based. The method, then:
Huh-7 cells containing the self-replicating, subgenomic HCV replicon with a stable luciferase (LUC) reporter were cultured in Dulbecco's modified Eagle's medium (DMEM) containing 2 mM L-glutamine and supplemented with 10% heat-inactivated fetal bovine serum (FBS), 1% penicillin-streptomyocin, 1% nonessential amino acids, and 0.5 mg/mL G418.
Determination of 50% inhibitory concentration (EC50) of compounds in HCV replicon cells were performed by the following procedure. On the first day, 5,000 HCV replicon cells were plated per well in a 96-well plate. On the following day, test compounds were solubilized in 100% DMSO to 100× the desired final testing concentration. Each compound was then serially diluted (1:3) up to 9 different concentrations. Compounds in 100% DMSO are reduced to 10% DMSO by diluting 1:10 in cell culture media. The compounds were diluted to 10% DMSO with cell culture media, which were used to dose the HCV replicon cells in 96-well format. The final DMSO concentration was 1%. The HCV replicon cells were incubated at 37° C. for 72 hours. At 72 hours, cells were processed when the cells are still subconfluent. Compounds that reduce the LUC signal are determined by Bright-Glo Luciferase Assay (Promega, Madison, Wis.). Percent Inhibition was determined for each compound concentration in relation to the control cells (untreated HCV replicon) to calculate the EC50.

As to `CC(C)OC(=O)[C@H](C)NP(=S)(OC[C@H]1O[C@@H](n2ccc(=O)[nH]c2=O)[C@](C)(O)[C@@H]1O)Oc1ccccc1` (stereo partly drawn) [Compound 1, 2′-C-methyluridine-5′-(O-phenyl-N—(S)-1-(isopropoxycarbonyl)ethyl)thiophosphoramidate], the EC50 was less than 1 µM.
